Experiment [1] concerns the target Nuclear receptor subfamily 4immunitygroup A member 1 (Homo sapiens) (UniProt P22736). The experiment is described as follows: Selectivity interaction (Reporter gene assay) EUB0001153a NR4A1. On the set-up: recommended concentration 10 uM. The following applies: screened at recom. conc., Selectivity number of off-targets 1.0, Selectivity number of targets 5.0, Source Knowledge inhouse. A general note: A reporter such as luciferase makes a cellular process visible.

The target in experiment [2] is T1, Retinoic acid receptor RXR-alpha (Homo sapiens) (UniProt P19793).
T1 sequence (whole entry): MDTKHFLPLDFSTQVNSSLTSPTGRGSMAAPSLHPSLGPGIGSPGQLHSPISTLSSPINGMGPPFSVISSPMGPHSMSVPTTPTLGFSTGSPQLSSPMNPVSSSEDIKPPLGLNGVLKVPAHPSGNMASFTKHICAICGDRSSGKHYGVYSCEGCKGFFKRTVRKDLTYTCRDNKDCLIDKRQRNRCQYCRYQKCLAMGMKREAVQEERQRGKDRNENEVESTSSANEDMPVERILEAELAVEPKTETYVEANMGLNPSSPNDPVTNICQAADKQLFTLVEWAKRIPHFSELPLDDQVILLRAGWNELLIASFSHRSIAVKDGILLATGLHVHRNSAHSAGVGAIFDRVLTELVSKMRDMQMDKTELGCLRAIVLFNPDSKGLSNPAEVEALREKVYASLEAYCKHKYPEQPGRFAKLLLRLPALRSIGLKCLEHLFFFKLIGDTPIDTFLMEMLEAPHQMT
In words: Selectivity interaction (Reporter gene assay) EUB0001153a RXRA. On the set-up: recommended concentration 10 uM. The note with it: reference bexarotene 1 uM, Selectivity number of off-targets 0.0, Selectivity number of targets 1.0, Source Knowledge inhouse.

Experiment [3] addresses Nuclear receptor subfamily 2 group E member 1 (Homo sapiens) (UniProt Q9Y466). In words: Selectivity interaction (Reporter gene assay) EUB0001153a NR2E1. On the set-up: recommended concentration 10 uM.
In experiment [4] the target is Steroidogenic factor 1 (Homo sapiens) (UniProt Q13285). The experiment is described as follows: Selectivity interaction (Reporter gene assay) EUB0001153a NR5A1. On the set-up: recommended concentration 10 uM.
The target of experiment [5] is T2, Alpha trans-inducing protein (Human alphaherpesvirus 1) (UniProt A0A5J6DW59). In words: Selectivity interaction (Reporter gene assay) EUB0001153a UL48. On the set-up: recommended concentration 10 uM.
The target of experiment [6] is T3, Nuclear receptor subfamily 2 group C member 1 (Homo sapiens) (UniProt P13056).
T3 sequence (whole entry): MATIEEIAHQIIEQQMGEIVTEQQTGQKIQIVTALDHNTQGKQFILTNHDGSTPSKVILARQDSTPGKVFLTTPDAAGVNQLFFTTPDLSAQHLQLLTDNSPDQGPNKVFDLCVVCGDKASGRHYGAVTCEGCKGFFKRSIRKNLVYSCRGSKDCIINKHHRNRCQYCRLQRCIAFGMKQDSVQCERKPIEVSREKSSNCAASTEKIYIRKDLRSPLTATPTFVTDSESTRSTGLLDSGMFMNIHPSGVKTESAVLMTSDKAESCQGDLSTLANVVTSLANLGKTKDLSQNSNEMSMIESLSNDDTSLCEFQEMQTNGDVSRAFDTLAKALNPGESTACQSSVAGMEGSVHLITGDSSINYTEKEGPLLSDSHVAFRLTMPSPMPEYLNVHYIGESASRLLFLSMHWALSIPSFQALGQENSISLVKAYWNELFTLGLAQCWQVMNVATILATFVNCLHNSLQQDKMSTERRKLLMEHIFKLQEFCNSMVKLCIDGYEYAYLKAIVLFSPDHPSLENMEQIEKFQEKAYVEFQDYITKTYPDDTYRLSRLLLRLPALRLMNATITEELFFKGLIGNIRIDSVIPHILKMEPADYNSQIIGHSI
The experiment is described as follows: Selectivity interaction (Reporter gene assay) EUB0001153a NR2C1. On the set-up: recommended concentration 10 uM.

Experiment [7] has as its target T4, Hepatocyte nuclear factor 4-alpha (Homo sapiens) (UniProt P41235).
T4 sequence (whole entry): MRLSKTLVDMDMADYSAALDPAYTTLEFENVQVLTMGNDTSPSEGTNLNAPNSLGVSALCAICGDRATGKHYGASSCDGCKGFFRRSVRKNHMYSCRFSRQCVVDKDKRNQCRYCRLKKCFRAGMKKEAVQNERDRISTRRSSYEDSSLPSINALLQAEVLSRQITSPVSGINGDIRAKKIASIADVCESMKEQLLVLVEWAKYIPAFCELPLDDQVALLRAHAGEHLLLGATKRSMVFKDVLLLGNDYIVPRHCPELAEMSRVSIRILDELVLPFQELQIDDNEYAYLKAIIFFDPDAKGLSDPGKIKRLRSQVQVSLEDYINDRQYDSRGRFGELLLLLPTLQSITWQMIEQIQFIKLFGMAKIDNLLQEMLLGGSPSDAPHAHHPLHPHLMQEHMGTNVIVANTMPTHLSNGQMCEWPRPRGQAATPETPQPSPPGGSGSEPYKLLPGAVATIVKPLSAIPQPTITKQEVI
In words: Selectivity interaction (Reporter gene assay) EUB0001153a HNF4A. On the set-up: recommended concentration 10 uM.

The target in experiment [8] is Steroidogenic factor 1 (Homo sapiens) (UniProt Q13285). The experiment is described as follows: Selectivity interaction (Reporter gene assay) EUB0001159a NR5A1. On the set-up: recommended concentration 1 uM.
Experiment [9] deals with T4, Hepatocyte nuclear factor 4-alpha (Homo sapiens). The experiment is described as follows: Selectivity interaction (Reporter gene assay) EUB0001159a HNF4A. On the set-up: recommended concentration 1 uM.
The target of experiment [10] is T3, Nuclear receptor subfamily 2 group C member 1 (Homo sapiens). In words: Selectivity interaction (Reporter gene assay) EUB0001159a NR2C1. On the set-up: recommended concentration 1 uM.
Experiment [11] deals with Nuclear receptor subfamily 4immunitygroup A member 1 (Homo sapiens) (UniProt P22736). In words: Selectivity interaction (Reporter gene assay) EUB0001159a NR4A1. On the set-up: recommended concentration 1 uM.
In experiment [12] the target is T2, Alpha trans-inducing protein (Human alphaherpesvirus 1). The experiment is described as follows: Selectivity interaction (Reporter gene assay) EUB0001159a UL48. On the set-up: recommended concentration 1 uM.
Experiment [13] addresses Nuclear receptor subfamily 2 group E member 1 (Homo sapiens) (UniProt Q9Y466). The experiment is described as follows: Selectivity interaction (Reporter gene assay) EUB0001159a NR2E1. On the set-up: recommended concentration 1 uM.
Experiment [14] concerns the target T1, Retinoic acid receptor RXR-alpha (Homo sapiens). In words: Selectivity interaction (Reporter gene assay) EUB0001159a RXRA. On the set-up: recommended concentration 1 uM. The following applies: reference bexarotene 1 uM, Selectivity number of off-targets 0.0, Selectivity number of targets 1.0, Source Knowledge inhouse.
In experiment [15] the target is T4, Hepatocyte nuclear factor 4-alpha (Homo sapiens). In words: Selectivity interaction (Reporter gene assay) EUB0001155a HNF4A. On the set-up: recommended concentration 10 uM.
Experiment [16] has as its target Nuclear receptor subfamily 4immunitygroup A member 1 (Homo sapiens) (UniProt P22736). In words: Selectivity interaction (Reporter gene assay) EUB0001155a NR4A1. On the set-up: recommended concentration 10 uM.
Experiment [17] deals with T3, Nuclear receptor subfamily 2 group C member 1 (Homo sapiens). In words: Selectivity interaction (Reporter gene assay) EUB0001155a NR2C1. On the set-up: recommended concentration 10 uM. The note with it: screened at recom. conc., Selectivity number of off-targets 2.0, Selectivity number of targets 5.0, Source Knowledge inhouse.
Experiment [18] has as its target T2, Alpha trans-inducing protein (Human alphaherpesvirus 1). In words: Selectivity interaction (Reporter gene assay) EUB0001155a UL48. On the set-up: recommended concentration 10 uM.
Experiment [19] deals with Steroidogenic factor 1 (Homo sapiens) (UniProt Q13285). In words: Selectivity interaction (Reporter gene assay) EUB0001155a NR5A1. On the set-up: recommended concentration 10 uM.
For experiment [20], the target named is Nuclear receptor subfamily 2 group E member 1 (Homo sapiens) (UniProt Q9Y466). The experiment is described as follows: Selectivity interaction (Reporter gene assay) EUB0001155a NR2E1. On the set-up: recommended concentration 10 uM. The following applies: screened at recom. conc., Selectivity number of off-targets 2.0, Selectivity number of targets 5.0, Source Knowledge inhouse.

Experiment [21] concerns the target T1, Retinoic acid receptor RXR-alpha (Homo sapiens). In words: Selectivity interaction (Reporter gene assay) EUB0001155a RXRA. The following applies: reference bexarotene 1 uM, Selectivity number of off-targets 0.0, Selectivity number of targets 1.0, Source Knowledge inhouse. On the set-up: recommended concentration 10 uM.
Experiment [22] deals with Nuclear receptor subfamily 4immunitygroup A member 1 (Homo sapiens) (UniProt P22736). The experiment is described as follows: Selectivity interaction (Reporter gene assay) EUB0001157a NR4A1. On the set-up: recommended concentration 10 uM.
Experiment [23] addresses T2, Alpha trans-inducing protein (Human alphaherpesvirus 1). In words: Selectivity interaction (Reporter gene assay) EUB0001157a UL48. On the set-up: recommended concentration 10 uM.
Experiment [24] deals with Steroidogenic factor 1 (Homo sapiens) (UniProt Q13285). The experiment is described as follows: Selectivity interaction (Reporter gene assay) EUB0001157a NR5A1. On the set-up: recommended concentration 10 uM.
Experiment [25] addresses T3, Nuclear receptor subfamily 2 group C member 1 (Homo sapiens). In words: Selectivity interaction (Reporter gene assay) EUB0001157a NR2C1. On the set-up: recommended concentration 10 uM.
Experiment [26] addresses T4, Hepatocyte nuclear factor 4-alpha (Homo sapiens). The experiment is described as follows: Selectivity interaction (Reporter gene assay) EUB0001157a HNF4A. On the set-up: recommended concentration 10 uM.
Experiment [27] concerns the target Nuclear receptor subfamily 2 group E member 1 (Homo sapiens) (UniProt Q9Y466). The experiment is described as follows: Selectivity interaction (Reporter gene assay) EUB0001157a NR2E1. On the set-up: recommended concentration 10 uM.
For experiment [28], the target named is T1, Retinoic acid receptor RXR-alpha (Homo sapiens). In words: Selectivity interaction (Reporter gene assay) EUB0001157a RXRA. On the set-up: recommended concentration 10 uM. The note with it: reference bexarotene 1 uM, Selectivity number of off-targets 0.0, Selectivity number of targets 1.0, Source Knowledge inhouse.

Steroidogenic factor 1 (Homo sapiens), sequence (Q13285 whole entry): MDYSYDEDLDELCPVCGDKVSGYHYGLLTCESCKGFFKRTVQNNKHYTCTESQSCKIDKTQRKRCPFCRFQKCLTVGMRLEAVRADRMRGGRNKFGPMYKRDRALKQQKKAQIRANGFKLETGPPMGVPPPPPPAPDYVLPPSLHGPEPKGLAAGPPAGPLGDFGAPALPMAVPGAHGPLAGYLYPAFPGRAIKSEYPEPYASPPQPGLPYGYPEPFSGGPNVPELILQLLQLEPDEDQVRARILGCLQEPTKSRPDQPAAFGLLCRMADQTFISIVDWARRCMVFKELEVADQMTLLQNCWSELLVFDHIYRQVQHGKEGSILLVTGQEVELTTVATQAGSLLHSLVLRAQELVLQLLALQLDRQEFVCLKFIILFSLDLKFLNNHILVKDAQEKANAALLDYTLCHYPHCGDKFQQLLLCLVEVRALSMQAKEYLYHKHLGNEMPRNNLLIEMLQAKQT
Nuclear receptor subfamily 4immunitygroup A member 1 (Homo sapiens), sequence (P22736 whole entry): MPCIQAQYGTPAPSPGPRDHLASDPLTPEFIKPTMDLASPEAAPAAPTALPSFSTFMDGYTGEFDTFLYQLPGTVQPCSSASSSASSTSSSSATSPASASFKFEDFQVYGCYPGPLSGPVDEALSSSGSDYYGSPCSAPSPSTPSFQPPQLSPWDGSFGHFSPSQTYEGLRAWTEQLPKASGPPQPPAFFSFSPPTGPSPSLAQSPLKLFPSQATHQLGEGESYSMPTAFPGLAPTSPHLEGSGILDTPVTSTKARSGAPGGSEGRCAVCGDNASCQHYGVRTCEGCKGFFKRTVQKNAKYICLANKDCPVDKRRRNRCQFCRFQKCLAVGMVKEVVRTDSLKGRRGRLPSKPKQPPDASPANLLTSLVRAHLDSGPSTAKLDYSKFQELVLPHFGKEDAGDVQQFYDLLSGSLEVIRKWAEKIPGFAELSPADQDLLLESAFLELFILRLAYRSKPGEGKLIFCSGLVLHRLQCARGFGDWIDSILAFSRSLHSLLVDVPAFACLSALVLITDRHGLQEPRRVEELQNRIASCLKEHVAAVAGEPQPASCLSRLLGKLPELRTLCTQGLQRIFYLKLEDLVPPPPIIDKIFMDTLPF
Nuclear receptor subfamily 2 group E member 1 (Homo sapiens), sequence (Q9Y466 whole entry): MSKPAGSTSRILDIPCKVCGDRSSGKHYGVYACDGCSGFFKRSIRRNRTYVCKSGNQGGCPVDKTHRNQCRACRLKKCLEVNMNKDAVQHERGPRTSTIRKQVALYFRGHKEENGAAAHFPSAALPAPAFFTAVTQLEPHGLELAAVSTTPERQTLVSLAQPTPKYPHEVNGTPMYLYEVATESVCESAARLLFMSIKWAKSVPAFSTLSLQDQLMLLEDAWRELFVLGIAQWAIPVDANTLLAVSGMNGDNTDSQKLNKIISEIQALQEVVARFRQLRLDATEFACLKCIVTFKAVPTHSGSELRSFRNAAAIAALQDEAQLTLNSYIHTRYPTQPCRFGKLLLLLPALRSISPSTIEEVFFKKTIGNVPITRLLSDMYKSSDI
T2 sequence (A0A5J6DW59 as listed by the source): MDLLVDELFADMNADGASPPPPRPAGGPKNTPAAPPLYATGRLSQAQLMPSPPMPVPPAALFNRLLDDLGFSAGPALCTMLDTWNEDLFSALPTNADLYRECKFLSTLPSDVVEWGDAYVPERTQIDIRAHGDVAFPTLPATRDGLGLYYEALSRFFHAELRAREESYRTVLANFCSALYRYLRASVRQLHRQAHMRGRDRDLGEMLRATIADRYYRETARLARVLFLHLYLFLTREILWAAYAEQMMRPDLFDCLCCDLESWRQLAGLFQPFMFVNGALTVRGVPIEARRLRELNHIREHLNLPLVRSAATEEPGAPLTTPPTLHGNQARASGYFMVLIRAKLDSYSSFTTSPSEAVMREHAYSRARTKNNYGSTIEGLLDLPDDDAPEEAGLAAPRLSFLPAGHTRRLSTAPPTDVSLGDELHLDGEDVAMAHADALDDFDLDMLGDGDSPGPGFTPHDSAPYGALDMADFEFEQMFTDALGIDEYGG

Regarding `CCOC(=O)C1Cc2ccccc2CN1C(=O)c1ccc(SC)s1` (stereo not drawn), the Fold activation in [1] is 2.05; in experiment [3] it was 1.33; in experiment [4] it was 1.11; in experiment [6], 1.13. In experiment [2], the Relative activation worked out at 0.245%. For the same compound, the P-value in [5] was 0.0358. Besides, in experiment [7], the Remaining activity was found to be 0.77.
On to `CCc1ccc(N(CC(C)C)S(=O)(=O)c2ccc(OCC3CCOCC3)c(CO)c2)cc1`, for which the Remaining activity in experiment [8] is 0.989; in [9], 0.994; in [10] it was 0.852; in experiment [11], 0.905; in experiment [13] it was 0.852. The compound further had a P-value in [12] of 0.00142. In experiment [14], this compound came in with a Relative activation of 0.288%.
Turning to `CCCCCNC(=O)N1CCC(CN(Cc2ccc(Cl)cc2)Cc2ccc([N+](=O)[O-])s2)C1` (stereo not drawn), the Remaining activity came out at 0.711 in experiment [15], 0.487 in experiment [17] and 0.483 in experiment [20]. Besides, the Fold activation in experiment [16] was 1.24; in [19] it was 1.16. The same compound gave a P-value in [18] of 1.75e-05. Further, the Relative activation in experiment [21] amounted to 0.1%.
For `O=S(=O)(Nc1ccc(C(O)(C(F)(F)F)C(F)(F)F)cc1)c1cccs1`, the Remaining activity in [22] was determined as 0.943; in [24], 0.818; in [25] it was 0.846; in [26], 0.822; in experiment [27] it was 0.634. This compound registered a P-value in experiment [23] of 0.00195. The compound also came in with a Relative activation in experiment [28] of 0.211%.

The values above are taken from ChEMBL document CHEMBL5715260, “Selectivity Literature for EUbOPEN Chemogenomic Library” (2024).
